Data taken from ChEMBL document CHEMBL4483862, “Open-source discovery of chemical leads for next-generation chemoprotective antimalarials” (2018).

Tested on: Plasmodium berghei
Test: Luciferase/luciferin-expressing antifolate-resistant parasites were used to infect a culture of HepG2 cells that were pre-incubated with compounds. Infected hepatocytes emit light due to the luciferase reaction. Assay results are presented as the percent inhibition of light emission compared to control. […]
Assay type: functional
Conditions: sporozoite; for IC90: read-out: LUCIFERASE INFECTION ASSAY - IC90

Row | SMILES | IC90 | further results
1 | CC(Oc1ccc(Cl)cc1)C(=O)Nc1sccc1C(N)=O (stereo not given) | 4.27 µM | IC50 (PBLUC_HILL_SLOPE 15.8, PBLUC_R_SQUARED 0.448, read-out: LUCIFERASE INFECTION ASSAY - IC50): 3.72 µM
2 | COc1cc2c(cc1OC)CN(c1nc(CN3CCOCC3)nc3sc4c(c13)CCC(C)C4)CC2 (stereo not given) | 3.91 µM | IC50 (PBLUC_HILL_SLOPE 15.9, PBLUC_R_SQUARED 0.656, read-out: LUCIFERASE INFECTION ASSAY - IC50): 3.41 µM
3 | COc1cc(NC(=O)Nc2nc(C(N)Cc3ccc(C(F)(F)F)cc3)cs2)cc(OC)c1OC (stereo not given) | > 6.65 µM | IC50 (PBLUC_HILL_SLOPE 15.7, PBLUC_R_SQUARED 0.39, read-out: LUCIFERASE INFECTION ASSAY - IC50): 6.04 µM
4 | c1ccn2c(Sc3ncnc4sccc34)nnc2c1 | 9.31 µM | IC50 (PBLUC_HILL_SLOPE 16.1, PBLUC_R_SQUARED 0.0872, read-out: LUCIFERASE INFECTION ASSAY - IC50): 8.13 µM
5 | CCCn1c(NC(=O)c2ccc3ccccc3n2)nc2ccccc21 | 3.56 µM | IC50 (PBLUC_HILL_SLOPE 15.7, PBLUC_R_SQUARED 0.527, read-out: LUCIFERASE INFECTION ASSAY - IC50): 3.1 µM
6 | Cc1sc2nc(-c3cccnc3)nc(N3CCN(C(=O)C4COc5ccccc5O4)CC3)c2c1C (stereo not given) | > 10 µM | IC50 (PBLUC_HILL_SLOPE 15.9, PBLUC_R_SQUARED 0.0253, read-out: LUCIFERASE INFECTION ASSAY - IC50): 9.35 µM
7 | OC(c1ccc(F)c(Cl)c1)c1nnc(Nc2cc(C(F)(F)F)ccc2F)s1 (stereo not given) | > 10 µM | IC50 (PBLUC_HILL_SLOPE 15.9, PBLUC_R_SQUARED 0.206, read-out: LUCIFERASE INFECTION ASSAY - IC50): 9.29 µM
8 | OCc1ccc(-c2cnc3cnc(-c4cccc(Cl)c4)cn23)cc1 | > 9.83 µM | IC50 (PBLUC_HILL_SLOPE 16, PBLUC_R_SQUARED 0.272, read-out: LUCIFERASE INFECTION ASSAY - IC50): 9.56 µM
9 | CC(C(=O)NCc1ccco1)c1ccc2c(c1)[nH]c1ccc(Cl)cc12 (stereo not given) | > 9.35 µM | IC50 (PBLUC_HILL_SLOPE 15.7, PBLUC_R_SQUARED 0.128, read-out: LUCIFERASE INFECTION ASSAY - IC50): > 9.35 µM
10 | CN(C)CCNC(=O)c1cccc(-c2cc(-c3ccc(-c4ccccc4)cc3F)cnc2N)c1 | > 7.26 µM | IC50 (PBLUC_HILL_SLOPE 15.7, PBLUC_R_SQUARED 0.255, read-out: LUCIFERASE INFECTION ASSAY - IC50): > 7.26 µM
11 | Cc1nc2c(C(N)=O)ncn2c(C)c1CCC(=O)Nc1ccc2oc3ccccc3c2c1 | 9.76 µM | IC50 (PBLUC_HILL_SLOPE 15.8, PBLUC_R_SQUARED 0.091, read-out: LUCIFERASE INFECTION ASSAY - IC50): 9.25 µM
12 | c1ccc(-c2cc3c(N4CCC(c5ncc[nH]5)CC4)ncnc3s2)cc1 | 3.94 µM | IC50 (PBLUC_HILL_SLOPE 15.6, PBLUC_R_SQUARED 0.358, read-out: LUCIFERASE INFECTION ASSAY - IC50): 3.43 µM
13 | O=c1cc(CN2CCN(C(c3ccc(F)cc3)c3ccc(F)cc3)CC2)nc2ccc(Cl)cn12 | 9.88 µM | IC50 (PBLUC_HILL_SLOPE 16, PBLUC_R_SQUARED 0.275, read-out: LUCIFERASE INFECTION ASSAY - IC50): 8.61 µM
14 | O=C(CN1C(=O)CSc2ccc(C(F)(F)F)cc21)Nc1ccc(Cl)cc1 | 3.03 µM | IC50 (PBLUC_HILL_SLOPE 15.8, PBLUC_R_SQUARED 0.354, read-out: LUCIFERASE INFECTION ASSAY - IC50): 2.64 µM
15 | COc1ccc(COC(=O)c2sc3nc4n(c(=O)c3c2C)CCC4)cc1F | > 10 µM | IC50 (PBLUC_HILL_SLOPE 15.9, PBLUC_R_SQUARED 0.0512, read-out: LUCIFERASE INFECTION ASSAY - IC50): 9.36 µM
16 | Cc1ccc(Cn2nc(C)c(C(=O)Nc3nc4c(s3)CCCC4)c2Cl)cc1 | > 10 µM | IC50 (PBLUC_HILL_SLOPE 15.7, PBLUC_R_SQUARED 0.159, read-out: LUCIFERASE INFECTION ASSAY - IC50): 9.13 µM
17 | O=C(NNc1cccc(Cl)c1)c1c[nH]c(=S)n1-c1ccccc1 | > 10 µM | IC50 (PBLUC_HILL_SLOPE 16, PBLUC_R_SQUARED 0.438, read-out: LUCIFERASE INFECTION ASSAY - IC50): 9.92 µM
18 | COc1cc(-c2cnc3cnc(-c4cccnc4)cn23)ccc1O | 3.99 µM | IC50 (PBLUC_HILL_SLOPE 15.7, PBLUC_R_SQUARED 0.533, read-out: LUCIFERASE INFECTION ASSAY - IC50): 3.47 µM
19 | CCOc1cc(/C=C2\CSc3c(F)cccc3C2=O)cc(Cl)c1O | > 10 µM | IC50 (PBLUC_HILL_SLOPE 15.8, PBLUC_R_SQUARED 0.377, read-out: LUCIFERASE INFECTION ASSAY - IC50): 9.68 µM
20 | Cc1c(-c2ccccc2)oc2c(C(=O)Nc3ccc(N4CCOCC4)c4ccncc34)cccc2c1=O | > 10 µM | IC50 (PBLUC_HILL_SLOPE 15.7, PBLUC_R_SQUARED 0.205, read-out: LUCIFERASE INFECTION ASSAY - IC50): 9.81 µM

Row | SMILES | IC90 | further results
21 | Cc1ccc(C(=O)OCCOc2ccccc2)cc1NC(=O)c1ccco1 | 1.22 µM | IC50 (PBLUC_HILL_SLOPE 15.6, PBLUC_R_SQUARED 0.272, read-out: LUCIFERASE INFECTION ASSAY - IC50): 1.06 µM
22 | COc1ccc(-c2nccc3n[nH]c(-c4cccc(C(F)(F)F)c4)c23)cc1OC | > 10 µM | IC50 (PBLUC_HILL_SLOPE 15.9, PBLUC_R_SQUARED 0.0621, read-out: LUCIFERASE INFECTION ASSAY - IC50): 9.75 µM
23 | O=C(c1cnc(Nc2cccc(C(F)(F)F)c2)[nH]1)c1ccccc1F | > 9.45 µM | IC50 (PBLUC_HILL_SLOPE 15.7, PBLUC_R_SQUARED 0.709, read-out: LUCIFERASE INFECTION ASSAY - IC50): 9.07 µM
24 | Cc1cc(=O)n2nc(C)c(-c3ccc(F)cc3)c2[nH]1 | > 12.8 µM | IC50 (PBLUC_HILL_SLOPE 15.8, PBLUC_R_SQUARED 0.105, read-out: LUCIFERASE INFECTION ASSAY - IC50): > 12.8 µM
25 | Cc1c(Cl)cccc1-n1c(SCC(=O)N(CCC#N)c2ccccc2)nc2ccccc2c1=O | > 10 µM | IC50 (PBLUC_HILL_SLOPE 15.9, PBLUC_R_SQUARED 0.269, read-out: LUCIFERASE INFECTION ASSAY - IC50): 9.73 µM
26 | CCOC(=O)c1cc(C#N)c(N2CCN(C(=O)Nc3cccc(C(F)(F)F)c3)CC2)nc1C(F)(F)F | > 6.4 µM | IC50 (PBLUC_HILL_SLOPE 16, PBLUC_R_SQUARED 0.406, read-out: LUCIFERASE INFECTION ASSAY - IC50): 6.3 µM
27 | FC(F)Sc1ccc2nc3ccccc3c(N3CCOCC3)c2c1 | 0.134 µM | IC50 (PBLUC_HILL_SLOPE 15.6, PBLUC_R_SQUARED 0.79, read-out: LUCIFERASE INFECTION ASSAY - IC50): 0.117 µM
28 | O=C(Nc1ccc(Nc2ccccc2)cc1)c1[nH]nc2ccccc12 | > 10 µM | IC50 (PBLUC_HILL_SLOPE 16, PBLUC_R_SQUARED 0.594, read-out: LUCIFERASE INFECTION ASSAY - IC50): 8.92 µM
29 | c1ccc(OCCN2CCN(c3ccc(-c4nc5ccccc5[nH]4)cn3)CC2)cc1 | > 10 µM | IC50 (PBLUC_HILL_SLOPE 16.1, PBLUC_R_SQUARED 0.136, read-out: LUCIFERASE INFECTION ASSAY - IC50): 9.41 µM
30 | CC(C)c1ccc(C(=O)CSc2nc(N)cc(N)n2)c(C(C)C)c1 | > 10 µM | IC50 (PBLUC_HILL_SLOPE 15.6, PBLUC_R_SQUARED 0.415, read-out: LUCIFERASE INFECTION ASSAY - IC50): 9.92 µM
31 | CCOC(=O)c1sc(N(Cc2ccccc2)C(=O)CCc2cc(OC)c(OC)c(OC)c2)nc1C | 4.11 µM | IC50 (PBLUC_HILL_SLOPE 16, PBLUC_R_SQUARED 0.382, read-out: LUCIFERASE INFECTION ASSAY - IC50): 3.58 µM
32 | O=C(Nc1nc2ccccc2[nH]1)c1cccc(S(=O)(=O)N(Cc2ccccc2)c2ccccc2Cl)c1 | 3.66 µM | IC50 (PBLUC_HILL_SLOPE 15.7, PBLUC_R_SQUARED 0.534, read-out: LUCIFERASE INFECTION ASSAY - IC50): 3.18 µM
33 | CN(C)S(=O)(=O)c1ccc(Cn2cc(C(=O)NCc3cccc(C(F)(F)F)c3)sc2=O)cc1 | > 6.61 µM | IC50 (PBLUC_HILL_SLOPE 16, PBLUC_R_SQUARED 0.195, read-out: LUCIFERASE INFECTION ASSAY - IC50): 6.47 µM
34 | N#Cc1c(SCC(=O)c2ccc(F)c(F)c2)nc2c(c1-c1cccs1)CCCC2 | > 7.74 µM | IC50 (PBLUC_HILL_SLOPE 15.7, PBLUC_R_SQUARED 0.483, read-out: LUCIFERASE INFECTION ASSAY - IC50): 7.6 µM
35 | N#Cc1ccc(C(=O)Nc2nc(-c3c[nH]c4ccccc34)cs2)cc1 | > 10 µM | IC50 (PBLUC_HILL_SLOPE 15.6, PBLUC_R_SQUARED 0.4, read-out: LUCIFERASE INFECTION ASSAY - IC50): 9.53 µM
36 | O=C(Nc1cccc(Cl)c1)Nc1ccc2nc(-c3ccncc3)nn2c1 | 3.69 µM | IC50 (PBLUC_HILL_SLOPE 15.9, PBLUC_R_SQUARED 0.357, read-out: LUCIFERASE INFECTION ASSAY - IC50): 3.21 µM
37 | COc1ccc(CCNC2CCc3c(c(C(=O)N(C)C)nn3CC3CCCCC3)C2)cc1 (stereo not given) | > 7.52 µM | IC50 (PBLUC_HILL_SLOPE 15.6, PBLUC_R_SQUARED 0.553, read-out: LUCIFERASE INFECTION ASSAY - IC50): 7.33 µM
38 | CCCNc1nc(-c2ccc(OC)cc2)c(-c2ccc(OC)cc2)s1 | > 10 µM | IC50 (PBLUC_HILL_SLOPE 15.7, PBLUC_R_SQUARED 0.0413, read-out: LUCIFERASE INFECTION ASSAY - IC50): 9.99 µM
39 | Clc1cccc(-c2nnc3ccc(-c4ccc(N5CCOCC5)cc4)cn23)c1 | > 10 µM | IC50 (PBLUC_HILL_SLOPE 15.8, PBLUC_R_SQUARED 0.114, read-out: LUCIFERASE INFECTION ASSAY - IC50): 9.72 µM
40 | CNC(=O)c1ccc(CN(Cc2csc(-c3ccsc3)n2)Cc2ccco2)cc1 | 3.26 µM | IC50 (PBLUC_HILL_SLOPE 16.0, 14.5, PBLUC_R_SQUARED 0.463, 0.641, read-out: LUCIFERASE INFECTION ASSAY - IC50): 2.83 µM
